Test results published in patent US6562758B1 (priority 1999, dated 2003).
Where “and” joins values, the source holds several entries; their conditions need not be identical. Equal values may be shown once. Read-outs that look alike come from different tables or passages of the source.

Key:
Settings in all cases: in vivo
[1] = test system: kidney beans; design: species or system kidney bean
[2] = test system: cotton plants; design: species or system cotton (Gossypium hirsutum)
[3] = test system: kidney beans; design: species or system kidney bean; remark: listed apart in the source
[4] = test system: cotton plants; design: species or system cotton (Gossypium hirsutum); remark: listed apart in the source
[5] = test system: potato plants
[6] = test system: cotton plants; design: species or system cotton (Gossypium hirsutum); remark: listed apart in the source
[7] = test system: red kidney bean plants
[8] = test system: red kidney bean plants; remark: listed apart in the source
[9] = test system: cotton plants; design: species or system cotton (Gossypium hirsutum); remark: listed apart in the source

SMILES	% Regrowth at 21 DAT [1]	regrowth [1]	% Defoliation [2]	% Defoliation 15 DAT [3]	% Regrowth Avg. [4]	Percent Defoliation [5]	% Defoliation [6]	% Regrowth [7]	% Defoliation [8]	% Regrowth 20 DAT [9]
CCOC(=O)/C(Cl)=C/c1cc(N2C(=O)C3=C(CCCC3)C2=O)ccc1Cl [BAS 123W, cinidon-ethyl]	124% and 110% and 73%	tended to promote regrowth	–	–	–	–	–	–	–	–
C/C(=N\NC(=O)Nc1cc(F)cc(F)c1)c1ncccc1C(=O)O [DFP, diflufenzopyr]	–	reduced regrowth as compared to the untreated check	23% and 40% and 39% and 21%	59%	7% and 6%	–	–	–	–	–
C[n+]1ccc(-c2cc[n+](C)cc2)cc1 [Paraquat, paraquat]	–	–	–	–	–	76% and 44%	–	–	–	–
O=P(O)(O)CCCl [ETP, (2-chloroethyl)phosphonic acid]	–	–	58% and 78%	28%	51%	–	31% and 49%	10%	18% and 20%	36.3%
